Reference: US9788546B2, “Synergistic pesticidal compositions and related methods” (DOW AGROSCIENCES LLC, priority 2013, dated 2017)
Like-named read-outs stand apart in the source and are kept apart here.

Tests used:
Type in all cases: in vivo
[1] = tested on: brown stink bugs, Euschistus heros; assay: Field spray and mesh cage test with bifenthrin, average mortality at 1, 2, 4, and 7 days; settings: 1, 2, 4, and 7 days after treatment
Protocol: Two emulsifying concentrate pesticidal compositions with a weight ratio of compound I to bifenthrin of 1:1 were prepared. The first comprising 0.0167 weight % of compound I and about 0.0167 weight % of bifenthrin and the second comprising 0.0333 weight % compound I and 0.0333 weight % bifenthrin. The compositions were diluted and applied to the field using a spray volume of […]. The application was done using a CO2 backpack sprayer with a solid cone nozzle TXVK-8 (ConeJet). Plants were allowed to air dry and then were placed in a mesh cage where different instar stink bugs were infested in two different trials (3rd and 4th nymphal stage, and adults). Average stink bug mortality was assessed at 1, 2, 4, and 7 days after application counting the number of dead insects and calculating the percent control based on the survivorship in the untreated treatment.
The average percent control of the pesticidal composition against brown stink bugs, Euschistus heros, was determined as the “Average Observed” action, and compared to the average of those obtained by using about 0.0167 weight %, 0.0333 weight %, and 0.0667 weight % of compound I alone, and the average of those obtained using about 0.0167 weight % and 0.0333 weight % of bifenthrin alone. The “Colby's Expected Action” was calculated using Colby's equation as discussed previously. […]

[2] = tested on: brown stink bugs, Euschistus heros; assay: Field spray and mesh cage test with alpha-cypermethrin, average mortality at 1 and 3 days; settings: 1 and 3 days after treatment
Protocol: Two emulsifying concentrate pesticidal compositions with a weight ratio of compound I to alpha-cypermethrin of 1:1 were prepared. The first comprising 0.0167 weight % of compound I and about 0.0167 weight % of alpha-cypermethrin and the second comprising 0.0333 weight % compound I and 0.0333 weight % alpha-cypermethrin. The compositions were diluted and applied to the field using a spray volume of […]. The application was done using a CO2 backpack sprayer with a solid cone nozzle TXVK-8 (ConeJet). Plants were allowed to air dry and then were placed in a mesh cage where different instar stink bugs were infested (3rd and 4th nymphal stage, and adults). Average stink bug mortality was assessed at 1 and 3 days after application counting the number of dead insects and calculating the percent control based on the survivorship in the untreated.
The average percent control of the pesticidal composition against brown stink bugs, Euschistus heros, was determined as the “Average Observed” action, and compared to the average of those obtained by using about 0.0167 weight %, 0.0333 weight %, and 0.0667 weight % of compound I alone, and the average of those obtained using about 0.0167 weight % and 0.0333 weight % of alpha-cypermethrin alone. The “Colby's Expected Action” was calculated using Colby's equation as discussed previously. […]

[3] = tested on: green stink bugs, Nezara viridula; assay: Field test, backpack sprayer, natural stink bug infestation; settings: Compound I alone, 0.0306 weight %
Protocol: (§1) Dyne-Amic at 0.625% V/V was used as an adjuvant in the tank mix, and the application was done using a backpack sprayer. Trial was conducted under a natural stink bug infestation. Numbers of adults and nymphs were counted four days after application in 1.82 meters of row per plot using a shake sheet (0.91 meters by 2 rows).
(§2) The “Colby's Expected Action” was calculated using Colby's equation as discussed previously.

[4] = tested on: brown stink bug, Euschistus heros; assay: Bean piece dip bioassay, third-instar nymphs; settings: Compound I alone, 0.04 weight %
Protocol: The active compounds were formulated in a 10% acetone solution with 0.025% non-ionic surfactant, TWEEN® 20. Bioassays were performed for each different active solution. Bean pieces (about one inch-long) were used for the tests. Four bean pieces were placed in each tested active solution and left there for 10 minutes. Bean pieces were taken out of the active solution, and each piece was placed in a well in a 32-well tray and allowed to air dry. Three third-instar nymphs of brown stink bug, Euschistus heros, were infested into each well. The percent control of the pesticidal composition against brown stink bug, Euschistus heros, was determined as the “Observed” action, and compared to those obtained by using about 0.04 weight % of compound I, and using about 0.0025 weight % of lambda-cyhalothrin alone. The “Colby's Expected Action” was calculated using Colby's equation as discussed previously.

[5] = tested on: brown stink bug, Euschistus servus (Say); assay: Field test, backpack sprayer, natural stink bug infestation; settings: Compound I alone
Protocol: as §1, §2, §2, §2

[6] = tested on: brown stink bug, Euschistus heros; assay: Diet treatment bioassay, second-instar nymphs; settings: Compound II alone, 0.04 weight %
[7] = tested on: stink bugs (Edessa meditabunda, Euschistus heros, and Piezodorus guildinii); settings: Compound II alone, field test
Protocol: […] Silwet L-77 at 0.1% V/V was used as an adjuvant in the tank mix, and the application was done using a CO2 backpack sprayer. Trial was conducted under a natural stink bug infestation. […] The stink bug population consisted on about 75% Edessa meditabunda, 20% of Euschistus heros, and 5% Piezodorus guildinii.
This was about 48% improvement over the Colby's expected action.

[8] = tested on: Western flower thrips, Frankliniella occidentalis (Pergande); assay: Cotton leaf punch dip bioassay, mortality of nymphs; settings: Compound II alone, 0.04 weight %; Example 5
Protocol: The active compounds were formulated in a 10% acetone solution with 0.025% non-ionic surfactant, TWEEN® 20. Cotton leaf punches were used for bioassays. Two cotton leaf punches were placed in each solution and left there for 10 minutes. Leaves were taken out of the solution, placed on a piece of filter paper in separated Petri dishes, and air dried. Each leaf disc was considered a repetition. Five nymph of Western flower thrips, Frankliniella occidentalis, were infested per repetition. The assessment of mortality was done three days after infestation. The percent control of the pesticidal composition Western flower thrips, Frankliniella occidentalis (Pergande), was determined as the “Observed” action, and compared to those obtained by using about 0.04 weight % of compound II, and using about 0.02 weight % of lambda-cyhalothrin alone. The “Colby's Expected Action” was calculated using Colby's equation as discussed previously.
The active compounds were formulated in a 10% acetone solution with 0.025% non-ionic surfactant, TWEEN® 20. Cotton leaf punches were used for bioassays. Two cotton leaf punches were placed in each solution and left there for 10 minutes. Leaves were taken out of the solution, placed on a piece of filter paper in separated Petri dishes, and air dried. Each leaf disc was considered a repetition. […]

[9] = tested on: Lygus bug, Lygus hesperus (Knight); assay: Treated string bean bioassay, four-day old nymphs; settings: Compound II alone, 0.04 weight %
Protocol: String beans were treated with different active compounds for ten minutes. Three four-day old nymphs of Lygus bug, Lygus hesperus (Knight), were infested onto each bean sample.

[10] = Compound I alone (1:0), average of 0.0167, 0.0333 and 0.0667 weight %

With `Cc1c(COC(=O)[C@@H]2[C@H](/C=C(\Cl)C(F)(F)F)C2(C)C)cccc1-c1ccccc1` (racemic) [Bifenthrin, bifenthrin, reference compound] the “Average % Control” value ([1]; Bifenthrin alone (0:1), average of 0.0167 and 0.0333 weight %) was 41.6%.
With `CCN(C(=O)CCSCCC(F)(F)F)c1cn(-c2cccnc2)nc1Cl` [Compound I, N-(3-chloro-1-(pyridin-3-yl)-1H-pyrazol-4-yl)-N-ethyl-3-((3,3,3-trifluoropropyl)thio)propanamide] the “Average % Control” value [2, 10] was 6.93%, the “% Control Four Days After Treatment” value ([3]; Example 11A) was 7.39% and the “% Control Four Days After Treatment” value ([3]; Example 11B) was 11.94%. For the same molecule, the “% Control Four Days After Treatment” value [4] was 17%, the “% Control Four Days After Treatment” value ([5]; 0.0306 weight %) was 15.15% and the “% Control Four Days After Treatment” value ([5]; 0.0459 weight %) was 15.15%. The “Average % Control” value [1, 10] was 9.34%.
With `CCN(C(=O)CC[S+]([O-])CCC(F)(F)F)c1cn(-c2cccnc2)nc1Cl` (stereo not drawn) [Compound II, N-(3-chloro-1-(pyridin-3-yl)-1H-pyrazol-4-yl)-N-ethyl-3-((3,3,3-trifluoropropyl)sulfinyl)propanamide] the “% Control After Six Days of Treatment” value [6] was 0%, the “% Control Three Days After Treatment” value ([7]; 0.10 weight %) was 12.5% and the “% Control Three Days After Treatment” value ([7]; 0.13 weight %) was 18.8%. The “% Control Three Days After Treatment” value ([7]; 0.20 weight %) was 6.3%, the “% Control Three Days After Treatment” value [8] was 20% and the “% Control Five Days After Treatment” value [9] was 25%.
With `CC1(C)C(C=C(Cl)Cl)C1C(=O)OC(C#N)c1cccc(Oc2ccccc2)c1` (stereo not drawn) [alpha-Cypermethrin, alpha-cypermethrin, reference compound] the “Average % Control” value ([2]; alpha-Cypermethrin alone (0:1), average of 0.0167 and 0.0333 weight %) was 21.1%.
